Experimental findings from patent publication US12673944B2, “Compounds having inhibitory activity against glucosylceramide synthase or pharmaceutically acceptable salt thereof, processes for preparing the same, and pharmaceutical compositions comprising the same” (YUHAN CORPORATION, priority 2019, dated 2026) are described below.

Assay [1] has as its target T1, glucosylceramide synthase (GCS) (Homo sapiens, UniProt Q16739).
T1 construct: The obtained supernatant was used; host or cells: A549 cells (lysate supernatant after sonication)
T1 sequence (Q16739 1-394): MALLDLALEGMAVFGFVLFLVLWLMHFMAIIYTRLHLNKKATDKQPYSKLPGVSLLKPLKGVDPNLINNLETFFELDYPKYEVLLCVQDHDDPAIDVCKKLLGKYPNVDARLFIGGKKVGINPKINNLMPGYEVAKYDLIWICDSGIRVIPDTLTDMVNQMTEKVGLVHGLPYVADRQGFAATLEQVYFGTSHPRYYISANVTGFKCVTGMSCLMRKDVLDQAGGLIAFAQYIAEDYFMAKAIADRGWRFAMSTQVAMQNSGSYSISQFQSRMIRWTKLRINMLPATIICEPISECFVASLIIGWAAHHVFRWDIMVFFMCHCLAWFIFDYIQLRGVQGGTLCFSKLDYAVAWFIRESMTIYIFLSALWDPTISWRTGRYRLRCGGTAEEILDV
Nature of the assay: GCS enzyme inhibition assay (A549 cell lysate, NBD C6-ceramide, HPLC fluorescence). The class given is biochemical. The settings on record: inhibitory activity against GCS, 37° C., 90 minutes. An outline of the steps:
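A549 cell lysate (50 mM HEPES pH 7.3) served as GCS source; reactions ran 90 min at 37° C, were stopped with chloroform/methanol and lipids extracted. Activity taken as GlcCer/(Cer+GlcCer) peak area, normalised between DMSO and ibiglustat controls.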

The subject of assay [2] is GM1 production in Jurkat cells. Nature of the assay: cells. The settings on record: Homo sapiens, Jurkat, 72 h. Type of assay: cell-based.

In the case of `CCc1cccc(-c2cc3c(cc2OC)C(NC(=O)O[C@@H]2CN4CCC2CC4)C(C)(C)CO3)c1` (stereo partly drawn) [Example 352, (S)-quinuclidin-3-yl (7-(3-ethylphenyl)-6-methoxy-3,3-dimethylchroman-4-yl)carbamate], the values for the 50% inhibitory concentration (IC50) in assay [1] and in assay [2] were 0.38 nM and 2 nM, respectively.
The corresponding values for `CCc1ccc(-c2cc3c(cc2OC)C(NC(=O)O[C@@H]2CN4CCC2CC4)C(C)(C)CO3)cc1` (stereo partly drawn) [Example 353, (S)-quinuclidin-3-yl (7-(4-ethylphenyl)-6-methoxy-3,3-dimethylchroman-4-yl)carbamate] are 0.33 nM and 2.3 nM.
The corresponding values for `COc1cccc(-c2cc3c(cc2OC)C(NC(=O)O[C@@H]2CN4CCC2CC4)C(C)(C)CO3)c1` (stereo partly drawn) [Example 354, (S)-quinuclidin-3-yl (6-methoxy-7-(3-methoxyphenyl)-3,3-dimethylchroman-4-yl)carbamate] are 0.63 nM and 3.1 nM.
The corresponding values for `COc1ccc(-c2cc3c(cc2OC)C(NC(=O)O[C@@H]2CN4CCC2CC4)C(C)(C)CO3)cc1` (stereo partly drawn) [Example 355, (S)-quinuclidin-3-yl (6-methoxy-7-(4-methoxyphenyl)-3,3-dimethylchroman-4-yl)carbamate] are 0.58 nM and 5.8 nM.
For the compound `CCOc1ccc(-c2cc3c(cc2OC)C(NC(=O)O[C@@H]2CN4CCC2CC4)C(C)(C)CO3)cc1` (stereo partly drawn) [Example 356, (S)-quinuclidin-3-yl (7-(4-ethoxyphenyl)-6-methoxy-3,3-dimethylchroman-4-yl)carbamate], the half-maximal inhibitory concentration (IC50) in assay [1] amounted to 0.48 nM; in assay [2] it was 3.4 nM.
The corresponding values for `COc1cc2c(cc1-c1ccsc1)OCC(C)(C)C2NC(=O)O[C@@H]1CN2CCC1CC2` (stereo partly drawn) [Example 357, (S)-quinuclidin-3-yl (6-methoxy-3,3-dimethyl-7-(thiophen-3-yl)chroman-4-yl)carbamate] are 0.45 nM and 4 nM.
The corresponding values for `COc1cc2c(cc1-c1cccc(C(C)C)c1)OCC(C)(C)C2NC(=O)O[C@@H]1CN2CCC1CC2` (stereo partly drawn) [Example 358, (S)-quinuclidin-3-yl (7-(3-isopropylphenyl)-6-methoxy-3,3-dimethylchroman-4-yl)carbamate] are 0.61 nM and 2 nM.
The corresponding values for `COc1ccc(Cl)c(-c2cc3c(cc2OC)C(NC(=O)O[C@@H]2CN4CCC2CC4)C(C)(C)CO3)c1` (stereo partly drawn) [Example 359, (S)-quinuclidin-3-yl (7-(2-chloro-5-methoxyphenyl)-6-methoxy-3,3-dimethylchroman-4-yl)carbamate] are 0.62 nM and 2.4 nM.
For the compound `COc1ccc(-c2cc3c(cc2OC)C(NC(=O)O[C@@H]2CN4CCC2CC4)C(C)(C)CO3)c(F)c1` (stereo partly drawn) [Example 360, (S)-quinuclidin-3-yl (7-(2-fluoro-4-methoxyphenyl)-6-methoxy-3,3-dimethylchroman-4-yl)carbamate], the figures for the half-inhibitory concentration (IC50) in assay [1] and in assay [2] were 0.55 nM and 10 nM, respectively.
The corresponding values for `COc1ccc(-c2cc3c(cc2OC)C(NC(=O)O[C@@H]2CN4CCC2CC4)C(C)(C)CO3)c(C)c1` (stereo partly drawn) [Example 361, (S)-quinuclidin-3-yl (6-methoxy-7-(4-methoxy-2-methylphenyl)-3,3-dimethylchroman-4-yl)carbamate] are 0.99 nM and 8.5 nM.
The corresponding values for `CCCCc1ccc(-c2cc3c(cc2OC)C(NC(=O)O[C@@H]2CN4CCC2CC4)C(C)(C)CO3)cc1` (stereo partly drawn) [Example 362, (S)-quinuclidin-3-yl (7-(4-butylphenyl)-6-methoxy-3,3-dimethylchroman-4-yl)carbamate] are 0.11 nM and 0.7 nM.
The corresponding values for `COc1cc2c(cc1-c1ccc(OC(C)C)c(Cl)c1)OCC(C)(C)C2NC(=O)O[C@@H]1CN2CCC1CC2` (stereo partly drawn) [Example 363, (S)-quinuclidin-3-yl (7-(3-chloro-4-isopropoxyphenyl)-6-methoxy-3,3-dimethylchroman-4-yl)carbamate] are 0.75 nM and 8.7 nM.
In the case of `COc1cc2c(cc1-c1ccc(C(C)(C)C)cc1)OCC(C)(C)C2NC(=O)O[C@@H]1CN2CCC1CC2` (stereo partly drawn) [Example 364, (S)-quinuclidin-3-yl (7-(4-(tert-butyl)phenyl)-6-methoxy-3,3-dimethylchroman-4-yl)carbamate], the IC50 amounted to 0.43 nM in assay [1] and 2 nM in assay [2].
The corresponding values for `COc1cc2c(cc1-c1cc(C)c(OC)c(C)c1)OCC(C)(C)C2NC(=O)O[C@@H]1CN2CCC1CC2` (stereo partly drawn) [Example 365, (S)-quinuclidin-3-yl (6-methoxy-7-(4-methoxy-3,5-dimethylphenyl)-3,3-dimethylchroman-4-yl)carbamate] are 1.2 nM and 14.5 nM.
The corresponding values for `COc1cc2c(cc1-c1ccc(OCC(C)C)cc1)OCC(C)(C)C2NC(=O)O[C@@H]1CN2CCC1CC2` (stereo partly drawn) [Example 366, (S)-quinuclidin-3-yl (7-(4-isobutoxyphenyl)-6-methoxy-3,3-dimethylchroman-4-yl)carbamate] are 0.19 nM and 0.7 nM.
The corresponding values for `COc1cc2c(cc1-c1ccc(OC(C)C)nc1)OCC(C)(C)C2NC(=O)O[C@@H]1CN2CCC1CC2` (stereo partly drawn) [Example 367, (S)-quinuclidin-3-yl (7-(6-isopropoxypyridin-3-yl)-6-methoxy-3,3-dimethylchroman-4-yl)carbamate] are 0.22 nM and 3.2 nM.
